This note sets out measurements from a melting point compilation (Tetko et al.; mined from patent text by program, amines drawn as free bases though some values may be those of a salt).

Consider `Cc1cncn1-c1cc(C#N)cc(C(F)(F)F)c1`, for which the melting point lay within 99 to 101 °C. Compound `O=C(O)C1=Cc2cc([N+](=O)[O-])ccc2OC1C(F)(F)F` (stereo not drawn) returned a melting point of 187 to 189 °C. `CCCCOC(=O)c1cc(OC)c(Cc2cnc(N)nc2N)c(OC)c1`: the melting point is 186 to 188 °C. `CC(C)CCS(=O)(=O)c1cccc(-c2nc(=O)c3ccccc3s2)n1` had a melting point of 146 to 147 °C. `Cn1cnc(S(=O)(=O)n2c(CCCC(=O)O)cc3cc(Cl)ccc32)c1` returned a melting point of 222 to 225 °C.

Take `CC(O)Cn1nc2c3c(cc(N)cc31)CCC2` (stereo not drawn): the melting point was 125 to 127 °C. Compound `NC1=CN(N)NN=C1c1cccc(Cl)c1Cl` gave a melting point of 216 to 218 °C.

The compound `O=[N+]([O-])c1ccc2oc(-c3ccc(CN4CCOCC4)s3)nc2c1` gave a melting point of 149 to 151 °C. The compound `COCCOC(=O)c1ccc(-c2ccc(N)cc2)c(C)c1` registered a melting point of 72 to 75 °C. `CCOC(=O)c1cc(NC(=O)c2ccc(Cl)cc2Cl)ccc1Oc1cncc(Cl)c1` gave a melting point of 125 to 127 °C. Consider `Cc1nc(-n2cc(C(=O)c3ccccc3)nn2)sc1C(=O)NCc1ccccc1`, for which the melting point is 176 to 178 °C.

On to `CCOC(=O)/C=C/c1ccc(-c2ccc(O)c(C34CC5CC(CC(C5)C3)C4)c2)c(C)c1`, for which the melting point was 193 to 195 °C. Compound `CCCCNS(=O)(=O)c1cc(C(=O)O)cc(N)c1Sc1ccc(NC(C)=O)cc1` showed a melting point of 228 to 229 °C.

The compound `CNC(=O)Cc1c(C(=O)c2ccccc2)[nH]c2cc(Cl)ccc12` displayed a melting point of 242 to 246 °C. Regarding `NNc1nc(-c2ccccc2)co1`, the melting point fell in the range of 158 to 160 °C. As to `CS(=O)(=O)Nc1ccc(-c2ccc(S(=O)(=O)n3ccc(C=CC(=O)NO)c3)cc2)cc1`, the melting point fell in the range of 160 to 167 °C. `CNC(=S)NS(=O)(=O)c1cc(CCNC(=O)c2cc(Cl)ccc2OC)ccc1OCCOC` gave a melting point of 134 °C. To `COC(=O)c1ccc(CCNCC(O)c2cc3ccccc3o2)cc1` (stereo not drawn) belongs 117 to 119 °C; to `COc1cc(C#CC(=O)c2ccccc2)cc(OC)c1OC`, 158 to 160 °C. To `COc1c(CC(C(=O)O)C(=O)O)cccc1C(=O)c1ccc(Cl)cc1` belongs 142 °C; to `COC(=O)Nc1cc(C(C)(C)C)cc(NC(=O)Nc2ccc(-c3ccc(CN4CCOCC4)nc3)c3ccccc23)c1OC`, 192 to 193 °C; to `OC[C@@H](O)[C@@H](CO)OCc1ccccc1Cl`, 74 to 76 °C. Regarding `OC(COc1ccc(-c2ccc(Br)cc2)cc1)CN1CCCC1` (stereo not drawn), the melting point was in the range of 121 to 122 °C.

`COC(=O)CCCc1cc2cc(Cl)ccc2n1S(=O)(=O)c1ccc2nsnc2c1`: the melting point is 103 to 106 °C. Regarding `Nc1nc(N)nc(-c2ccc(-c3ccc([N+](=O)[O-])cc3)cc2)n1`, the melting point is more than 250 °C. `COC(=O)c1cc(OP(=O)(OC)OC)c(C(=O)OC)s1` showed a melting point of 60 °C.

`OCCN1CCN(c2nn(-c3ccc(C(F)(F)F)cc3)c3ccccc23)CC1` gave a melting point of 82 to 84 °C. To `CCC1(CC)CC(O)CC(C)(C)N1OC(C)c1ccccc1` (stereo not drawn) belongs 84 to 86 °C. `CCCCCCc1cc2c(cc1C(=O)Oc1ccc(C(=O)O)cn1)C(C)(C)CC2` showed a melting point of 104 to 105 °C. As to `O=C(O)c1cnn(-c2ccc(F)cc2)c1Cl`, the melting point was 230 to 231 °C.

The compound `Cc1nc(N2CCN(Cc3ccc(F)cc3)C2=O)sc1C(=O)NCc1cccnn1` returned a melting point of 222 to 225 °C. `OC(CCN1CC=C(c2ccc(Cl)cc2)CC1)c1ccc(Cc2ccccn2)cc1` (stereo not drawn): the melting point is 129 to 131 °C. Turning to `FC(F)(F)Oc1ccc(Cn2cnc3c(Cl)ncnc32)cc1`, the melting point lay in the range of 115 to 116 °C. As for `O=C(c1ccccc1)c1ccccc1C#CCN1C(=O)c2ccccc2C1=O`, the melting point was in the range of 164 to 165 °C. `[N-]=[N+]=NC1CCc2ccccc2NC1=O` (stereo not drawn) had a melting point of 142 to 145 °C. `CC1(C)c2ccc([N+](=O)[O-])cc2[C@@H](NC(=O)NCc2ccccc2)[C@@H]1O` (relative stereo) returned a melting point of 202 to 204 °C.

`Cc1[nH]c(-c2ccncc2)c(C)c1C(=O)C(F)(F)F`: the melting point fell in the range of 169 to 170 °C. `CCCCc1nc2sccc2c(=O)n1CCC` showed a melting point of 70 to 72 °C. To `CCOC(=O)CCc1cc(Cl)c(Cl)cc1C(=O)CCCNC(C)=O` belongs 63 to 65 °C; to `O=C1c2c(F)c(F)c(F)c(F)c2C(=O)N1c1c[nH]c(=O)[nH]c1=O`, 350 to 355 °C; to `CCCNCC(O)COc1ccccc1CCCc1cccc2c1CC(=O)N2` (stereo not drawn), 122 °C. Turning to `CC(C)(C)OC(=O)c1ccc2cncn2c1`, the melting point worked out at 77 °C. The same measure for `OCC(Oc1ccc(-c2ccccc2)cc1)c1ccccc1` (stereo not drawn): 126 to 127 °C; for `C=CCCCCNC(=O)c1cnc(OCC(O)CNC(C)(C)C)s1` (stereo not drawn): 80 to 81 °C. In turn, `CCOC(=O)CC(=O)CC(=O)c1cccnc1` showed a melting point of 187 to 189 °C.

With `CCCc1c(OCCCOc2ccc3c(c2CCC)OC(C)(CCC(=O)OC)CC3=O)ccc(C(C)=O)c1O` (stereo not drawn), the melting point fell in the range of 73 to 74.5 °C. To `CCC(=CC(CNC(=O)c1cnc2ccccc2c1)=NO)C(C)[N+](=O)[O-]` (stereo not drawn) belongs 168 to 170 °C. To `CC(Br)C(=O)c1ccccc1NCC(=O)O` (stereo not drawn) belongs 144 to 147 °C; to `CC(C)(C)C(NC(=O)c1ccc(Cl)cc1)NC(=NC#N)NCc1ccncc1` (stereo not drawn), 189 to 191 °C. `CCCN(CCC)C(=O)Cn1c(=O)[nH]c2cnc(-c3ccc(Cl)cc3)nc21` yielded a melting point of 177 to 178 °C. Regarding `COc1ccc(Oc2c(OC)cc([N+](=O)[O-])c3nccc(C)c23)cc1`, the melting point lay within 158 to 160 °C.

`Cc1c(NC(=O)c2ccc(-c3ccc4c(c3)CCO4)cc2F)ccc2cc(CN3CCCC3)cnc12` registered a melting point of 181 to 182 °C.

With `CCCc1nc2c(N)nc3ccccc3c2n1CC(C)(C)CC(C)=O`, the melting point was 178 to 180 °C. As for `CC(=O)c1ccc(C)cc1N(C)C=O`, the melting point is 58 to 60 °C. Take `CC(C)c1cc(C(C)(C)C)cc(-c2ccc(F)cc2)c1O`: the melting point lay within 109 to 111 °C.

With `CCOCc1nc2c(N)nc3cc(-c4cccc(C(=O)O)c4)ccc3c2n1CC(C)(C)O`, the melting point was more than 250 °C. `C=CCc1c(N)ccc2c(=O)cc(C(=O)OCC)oc12`: the melting point lay in the range of 142 to 143 °C. Turning to `CCCc1nc2ccnn2c(O)c1Cc1ccc(-c2ccccc2C(=O)O)cc1`, the melting point was 230 to 240 °C. To `O=C(NC1CCN(Cc2ccccc2)CC1)c1n[nH]c2ccccc12` belongs 198 to 200 °C; to `CC(C)c1c[nH]c(S)n1`, 147 to 150 °C; to `CC(C)(C)N1CC(=O)Nc2ccc(C#C[Si](C)(C)C)cc2C1=O`, 243 to 244 °C. The same measure for `CCCCCCCCCCc1csc2c1sc1c2sc2c3scc(CCCCCCCCCC)c3sc21`: 108 °C. For the compound `CC1C(N(C)C)CCN2c3ccccc3Cc3ccccc3C12` (stereo not drawn), the melting point fell in the range of 174 to 176 °C.

As for `COc1cccc(C=Cc2ccccc2)c1O`, the melting point is 85 to 87 °C. `O=C(O)c1cccc(NC(=O)N2CCc3cc(S(=O)(=O)N4CCN(c5cccc(Cl)c5)CC4)ccc32)c1` had a melting point of 250 °C. In the case of `CC1(c2oncc2C(=O)c2ccc(S(C)(=O)=O)cc2C(F)(F)F)CC1`, the melting point was in the range of 141 to 142 °C. Turning to `CS(=O)CCCn1c(=N)sc2cc(OC(F)(F)F)ccc21` (racemic), the melting point was determined as 114 °C. Compound `O=C1CCC(N2Cc3c(OCc4ccc(CN5CCN(S(=O)(=O)c6ccc(F)c(F)c6)CC5)cc4)cccc3C2=O)C(=O)N1` (stereo not drawn) showed a melting point of 225 to 227 °C.

`CC(C)(C)OC(=O)CC1(O)CCc2c([nH]c3ccccc23)C1=O` (stereo not drawn) yielded a melting point of 156 to 157 °C.

Turning to `Cc1cc(C)c(S(=O)(=O)On2nnc3ccccc32)c(C)c1`, the melting point is 128 to 130 °C. `Nc1nc(=O)n(C(=O)Nc2cccc(Cl)c2)cc1F` showed a melting point of 250 to 252 °C.

The compound `COC(=O)c1cc(Cl)c(Cl)c(-c2cc(C)no2)c1C` gave a melting point of 76 to 77 °C. On to `CCCCS(=O)Cc1cc(C)c(CCl)cc1C` (stereo not drawn), for which the melting point was 112 °C. `COC1=C(OC)C(=O)c2c(Cl)cccc2C1=O` had a melting point of 120 to 121 °C. `COc1ccc(CCN(C)CCCc2ccc(NC(=O)c3cccc4c(=O)c5ccccc5[nH]c34)cc2)cc1OC` yielded a melting point of 114 °C. The same measure for `COC(=O)[C@@H](OS(=O)(=O)c1ccc(C)cc1)[C@H](O)c1ccc(F)cc1`: 122 to 124 °C; for `CC1CC(=O)c2c(SCc3ncn(C)n3)ccc(-c3nccs3)c2C1` (stereo not drawn): 130 to 131 °C; for `Nc1nc(Nc2ccc(SC3(Cl)C=CC(C(F)(F)F)=CN3)cc2)sc1C(=O)c1c(Cl)cc(C(F)(F)F)cc1Cl` (stereo not drawn): 130 to 132 °C.

As to `O=C1Nc2ccc(-c3cccc(Cl)c3)cc2C2(CCCCC2)O1`, the melting point lay within 165 to 168 °C. The compound `CC(C)(C)OC(=O)Nc1cc(N2CCC3(CC2)OCCO3)c(-c2ccccc2F)cc1N` registered a melting point of 198 °C. As for `Cc1ccc(C(=O)NC(NC(=S)Nc2ccc(F)cc2)C(F)(F)F)cc1` (stereo not drawn), the melting point fell in the range of 208 to 210 °C. Compound `C=CNC(=S)n1nc(Oc2ncc(C(F)(F)F)cc2Cl)cc1C` yielded a melting point of 90 to 92 °C. Turning to `O=C(CC(O)C(F)(F)F)c1cc(Cl)cc(Cl)c1` (stereo not drawn), the melting point was in the range of 165 to 166 °C.

In the case of `O=C1NCC=NN1c1ccc(Cc2ccc(Cl)cc2)c(Cl)c1`, the melting point lay within 196 to 197 °C.

Regarding `N#Cn1c(SCC(=O)N2CCCc3ccccc32)nc2ccccc21`, the melting point lay in the range of 153 to 154 °C. As to `CCCn1c(=O)[nH]c2ccc(C(=O)c3nc(-c4cccc(C(=O)O)c4)c4ccccn34)cc2c1=O`, the melting point stood at 365 °C.

As for `O=C(NC1CCN(CCc2cccc(F)c2)C1)C12CC3CC(CC(C3)C1)C2` (stereo not drawn), the melting point was in the range of 87 to 89 °C.

As to `Cc1noc(-c2ncn3c2CN(C)C(=O)c2cc(F)ccc2-3)n1`, the melting point lay within 244 to 245 °C.
